Reference: ChEMBL document CHEMBL1142805, “Study on supramolecular complexing ability vis-à-vis estimation of pKa of substituted sulfonamides: dominating role of Balaban index (J)” (Bioorg Med Chem Lett, 2005)

Assay: Protonation constant (Proton-ligand formation constant) was determined
Type: ADME

O=[N+]([O-])c1ccc(S(=O)(=O)Nc2ccccc2)cc1
pKa: 6.66
